# Calls of active or inactive are those of the source.
# Assays:
# [1] = biological target: FAD-linked sulfhydryl oxidase ALR (Homo sapiens, UniProt P55789); assay: ALR-catalysed DTT oxidation blockers – biochemical, H2O2 detection, luminescence, cherry-pick, dose response (AID 493248)
# [2] = Luminescence Cell-Based Dose Confirmation HTS to Identify Activators of 5'UTR Stem-Loop Driven Alpha-Synuclein mRNA Translation in H4 Neuroglioblastoma Cells. [Related pubchem assays: 1829 (Project Summary), 1814 (Primary HTS)]; format: functional
# H4 = assay: Luminescence Cell-Based Dose Response HTS to Identify Activators of 5'UTR Stem-Loop Driven Prion Protein mRNA Translation in H4 Neuroglioblastoma Cells. [Related pubchem assays: 1829 (Project Summary), 1814 (Primary HTS)]; format: functional; details: Homo sapiens
# [3] = Luminescence Cell-Based Dose Response HTS to Identify Activators of Luciferase Translation or Activity in H4 […] Cells. [Related pubchem assays: 1829 (Project Summary), 1814 (Primary HTS)]; format: functional
# Cytochrome P450 3A4 = Cytochrome P450 3A4 (Homo sapiens, UniProt P08684);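 also: CYP3A4 tested as one member of a cytochrome P450 panel screen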
# Cytochrome P450 2C9 = Cytochrome P450 2C9 (Homo sapiens, UniProt P11712)
# [4] = blockers of HIV-1 envelope-mediated cell-cell fusion – cherry-pick, dose response (AID 652057); format: functional, cell-based
# [5] = viability loss in CEM21 cells – cell-based, CellTiter-Glo luminescence, cherry-picked, cytotoxicity control for viral fusion inhibitor project, dose response (AID 652042); format: functional;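 also: potency for signal decrease meaning cytotoxicity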
# [6] = HIV-1 AD8 envelope cell-cell fusion blockers – cherry-pick, dose response (AID 652062); format: functional, cell-based;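 also: luciferase signal from cell-cell fusion driven by HIV-1 clade B AD8 Env; potency is for inhibitors of fusion seen as a drop in luminescence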
# [7] = blockers of HIV-1 ZM109 envelope-driven cell-cell fusion – HeLa effector, CEM target cells, luciferase, cherry-pick, dose response (AID 652058); format: functional, cell-based;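 also: luciferase signal from HIV-1 Env mediated cell-cell fusion of effector and target cells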
# [8] = off-target signal loss in HeLa-CEM21 co-culture – HeLa F-luc CTL cells, cherry-picked, counter-screen for HIV-1 Env fusion inhibitor project, dose response (AID 652040); format: functional, cell-based;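 also: potency for signal decrease marking cytotoxic or nonspecific inhibition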
# Vero = assay: cells; format: functional; details: Chlorocebus sabaeus
# Cytochrome P450 1A2 = biological target: T1, Cytochrome P450 1A2 (Homo sapiens, UniProt P05177);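 also: PubChem cytochrome P450 panel assay, CYP1A2 panel member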
# T1 sequence (P05177 whole entry): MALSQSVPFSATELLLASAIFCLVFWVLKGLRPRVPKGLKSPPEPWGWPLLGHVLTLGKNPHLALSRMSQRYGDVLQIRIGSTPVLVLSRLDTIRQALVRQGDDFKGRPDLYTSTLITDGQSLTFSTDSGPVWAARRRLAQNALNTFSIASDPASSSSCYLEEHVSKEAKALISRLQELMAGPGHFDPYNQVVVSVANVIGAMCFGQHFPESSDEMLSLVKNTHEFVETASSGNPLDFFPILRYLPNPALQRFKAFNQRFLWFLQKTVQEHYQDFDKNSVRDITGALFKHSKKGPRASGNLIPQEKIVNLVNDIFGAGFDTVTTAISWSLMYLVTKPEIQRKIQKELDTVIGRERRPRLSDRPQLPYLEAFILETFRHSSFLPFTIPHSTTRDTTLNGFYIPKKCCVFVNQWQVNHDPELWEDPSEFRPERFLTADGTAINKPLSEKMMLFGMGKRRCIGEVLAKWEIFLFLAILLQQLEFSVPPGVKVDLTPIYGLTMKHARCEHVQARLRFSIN
# Cytochrome P450 2D6 = Cytochrome P450 2D6 (Homo sapiens, UniProt P10635);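 also: CYP2D6 member of a cytochrome P450 panel assay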
# [9] = biological target: T2, Replicative DNA helicase DnaB (Mycobacterium tuberculosis, UniProt P9WMR3); assay: DnaB intein splicing inhibitors, dose response, biochemical, cell-free fluorescence (AID 449749); format: functional
# T2 sequence (P9WMR3 whole entry): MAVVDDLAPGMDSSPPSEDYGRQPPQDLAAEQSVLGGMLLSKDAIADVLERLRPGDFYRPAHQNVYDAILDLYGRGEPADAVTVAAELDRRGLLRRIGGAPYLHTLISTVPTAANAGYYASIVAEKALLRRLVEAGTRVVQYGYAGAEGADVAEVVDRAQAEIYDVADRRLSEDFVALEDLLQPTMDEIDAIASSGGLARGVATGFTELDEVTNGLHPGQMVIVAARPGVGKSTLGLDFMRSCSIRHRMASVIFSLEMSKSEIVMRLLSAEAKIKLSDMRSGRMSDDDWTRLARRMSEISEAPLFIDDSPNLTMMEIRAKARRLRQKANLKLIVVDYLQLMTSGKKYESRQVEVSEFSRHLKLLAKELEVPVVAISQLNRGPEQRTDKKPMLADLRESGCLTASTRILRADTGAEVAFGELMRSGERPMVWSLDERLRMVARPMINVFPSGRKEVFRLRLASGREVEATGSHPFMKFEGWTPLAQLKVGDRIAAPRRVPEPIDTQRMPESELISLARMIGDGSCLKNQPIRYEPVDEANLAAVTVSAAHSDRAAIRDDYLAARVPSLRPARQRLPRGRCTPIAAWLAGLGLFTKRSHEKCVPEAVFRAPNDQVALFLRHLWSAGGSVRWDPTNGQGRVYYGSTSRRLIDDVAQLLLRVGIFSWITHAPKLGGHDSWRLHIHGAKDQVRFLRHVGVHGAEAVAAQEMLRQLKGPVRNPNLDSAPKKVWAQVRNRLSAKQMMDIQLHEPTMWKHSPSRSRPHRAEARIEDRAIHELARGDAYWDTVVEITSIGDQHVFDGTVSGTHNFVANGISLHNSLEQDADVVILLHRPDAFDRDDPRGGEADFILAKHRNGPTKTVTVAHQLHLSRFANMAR
# Protein RecA = biological target: T3, Protein RecA (Mycobacterium tuberculosis, UniProt P9WHJ3); assay: Fluorescence Cell-Free Homogeneous Dose Retest to Identify Inhibitors of RecA-Intein Splicing Activity. [Related pubchem assays (depositor defined):AID2097, AID2223, AID489010, AID492950]; format: functional
# T3 sequence (P9WHJ3 whole entry): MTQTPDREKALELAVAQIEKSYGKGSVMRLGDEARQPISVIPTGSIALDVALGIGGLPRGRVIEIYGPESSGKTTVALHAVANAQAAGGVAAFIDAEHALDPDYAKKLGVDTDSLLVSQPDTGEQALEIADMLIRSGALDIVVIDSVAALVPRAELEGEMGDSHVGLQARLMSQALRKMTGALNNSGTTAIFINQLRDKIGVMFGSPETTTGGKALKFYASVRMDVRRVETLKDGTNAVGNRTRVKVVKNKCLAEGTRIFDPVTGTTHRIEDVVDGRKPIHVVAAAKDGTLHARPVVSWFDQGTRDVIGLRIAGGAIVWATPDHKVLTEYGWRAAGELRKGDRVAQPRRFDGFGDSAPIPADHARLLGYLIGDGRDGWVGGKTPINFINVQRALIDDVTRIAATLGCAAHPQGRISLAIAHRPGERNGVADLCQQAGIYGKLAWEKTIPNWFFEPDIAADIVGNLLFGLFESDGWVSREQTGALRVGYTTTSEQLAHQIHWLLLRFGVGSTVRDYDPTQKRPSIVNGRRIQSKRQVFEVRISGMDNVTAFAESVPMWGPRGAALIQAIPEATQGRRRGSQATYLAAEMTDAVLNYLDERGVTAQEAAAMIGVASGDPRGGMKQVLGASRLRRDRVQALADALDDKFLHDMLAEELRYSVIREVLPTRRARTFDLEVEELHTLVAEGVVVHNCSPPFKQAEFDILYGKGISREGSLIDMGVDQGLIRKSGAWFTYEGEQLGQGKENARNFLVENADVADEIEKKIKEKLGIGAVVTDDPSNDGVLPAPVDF
# [10] = biological target: T4, Heat shock factor protein 1 (Mus musculus, UniProt P38532); assay: enhancement of HSF1-driven luciferase signal – cell-based, NIH3T3, luminescence, dose retest, confirmation (AID 435004); format: functional;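 also: stress induced by proteasome inhibitor MG132 added 30 min after compound; luciferase reporter driven by HSF1 response element in NIH3T3 cells; actives raise luminescence as potentiators of the MG132 stress response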
# T4 sequence (P38532 whole entry): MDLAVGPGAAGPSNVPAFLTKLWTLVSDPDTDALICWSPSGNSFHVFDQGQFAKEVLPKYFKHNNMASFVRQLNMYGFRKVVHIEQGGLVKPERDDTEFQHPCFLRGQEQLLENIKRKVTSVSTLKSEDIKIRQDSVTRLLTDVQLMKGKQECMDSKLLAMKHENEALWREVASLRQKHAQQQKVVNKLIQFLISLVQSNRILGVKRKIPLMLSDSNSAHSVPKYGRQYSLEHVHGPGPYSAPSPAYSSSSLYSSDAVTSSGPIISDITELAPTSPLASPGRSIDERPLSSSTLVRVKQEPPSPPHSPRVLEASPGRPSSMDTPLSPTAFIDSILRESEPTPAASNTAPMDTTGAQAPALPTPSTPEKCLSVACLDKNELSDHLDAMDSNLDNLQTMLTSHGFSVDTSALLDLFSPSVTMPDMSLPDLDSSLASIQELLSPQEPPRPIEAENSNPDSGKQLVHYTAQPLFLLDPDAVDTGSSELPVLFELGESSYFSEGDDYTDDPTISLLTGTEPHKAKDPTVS
# Cytochrome P450 2C19 = Cytochrome P450 2C19 (Homo sapiens, UniProt P33261); assay: Cytochrome panel assay with activity outcomes. Panel member name: p450-cyp2c19 Compounds with AC50 equal or less than 10 uM are considered active; format: functional
# INS1 = assay: INS-1E survival protection against cytokine death – cell-based, luminescence, retest, dose response (AID 449756); format: functional; details: Rattus norvegicus;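 also: cell death triggered by IL-1 beta plus TNF-alpha plus IFN-gamma mixture; protective hits raise ATP signal compared with cytokine alone wells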
# [11] = microbe, parasite or virus in culture; format: functional; details: Mycobacterium tuberculosis
# Sequence of Cytochrome P450 2C9 (P11712 whole entry, the tested form may be a part): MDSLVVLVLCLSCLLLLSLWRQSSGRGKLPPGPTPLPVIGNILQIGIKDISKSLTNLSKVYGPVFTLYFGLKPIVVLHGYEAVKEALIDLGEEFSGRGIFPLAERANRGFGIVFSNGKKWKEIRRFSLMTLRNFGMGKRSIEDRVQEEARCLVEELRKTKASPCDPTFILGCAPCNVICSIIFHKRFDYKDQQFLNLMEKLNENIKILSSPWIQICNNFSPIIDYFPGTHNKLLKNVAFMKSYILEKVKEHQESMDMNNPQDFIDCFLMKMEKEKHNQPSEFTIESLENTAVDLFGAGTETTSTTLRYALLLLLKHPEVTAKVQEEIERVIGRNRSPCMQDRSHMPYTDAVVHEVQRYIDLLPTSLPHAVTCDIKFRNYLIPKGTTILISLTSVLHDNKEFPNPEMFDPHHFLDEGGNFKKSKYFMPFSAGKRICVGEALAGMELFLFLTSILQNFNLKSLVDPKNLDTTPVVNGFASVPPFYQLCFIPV
# Sequence of FAD-linked sulfhydryl oxidase ALR (P55789 whole entry): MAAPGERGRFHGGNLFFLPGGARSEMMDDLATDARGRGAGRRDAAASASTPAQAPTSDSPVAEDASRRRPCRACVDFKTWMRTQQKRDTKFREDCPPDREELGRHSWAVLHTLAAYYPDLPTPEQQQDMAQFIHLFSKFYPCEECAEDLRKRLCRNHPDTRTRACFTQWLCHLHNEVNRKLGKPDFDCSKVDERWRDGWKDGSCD
# Sequence of Cytochrome P450 2C19 (P33261 whole entry): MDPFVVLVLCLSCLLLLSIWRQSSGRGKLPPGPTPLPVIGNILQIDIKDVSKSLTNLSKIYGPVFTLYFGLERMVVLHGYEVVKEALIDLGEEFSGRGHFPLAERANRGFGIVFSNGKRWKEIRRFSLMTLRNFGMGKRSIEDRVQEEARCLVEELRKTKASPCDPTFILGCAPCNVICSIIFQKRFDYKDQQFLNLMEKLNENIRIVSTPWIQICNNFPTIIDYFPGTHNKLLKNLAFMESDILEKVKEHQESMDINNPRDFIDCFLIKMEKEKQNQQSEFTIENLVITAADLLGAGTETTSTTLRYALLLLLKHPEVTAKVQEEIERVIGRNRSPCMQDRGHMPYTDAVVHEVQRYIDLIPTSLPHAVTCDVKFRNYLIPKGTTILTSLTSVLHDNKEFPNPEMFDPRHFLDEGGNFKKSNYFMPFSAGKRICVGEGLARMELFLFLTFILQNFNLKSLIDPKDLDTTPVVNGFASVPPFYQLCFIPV
# Sequence of Cytochrome P450 2D6 (P10635 whole entry): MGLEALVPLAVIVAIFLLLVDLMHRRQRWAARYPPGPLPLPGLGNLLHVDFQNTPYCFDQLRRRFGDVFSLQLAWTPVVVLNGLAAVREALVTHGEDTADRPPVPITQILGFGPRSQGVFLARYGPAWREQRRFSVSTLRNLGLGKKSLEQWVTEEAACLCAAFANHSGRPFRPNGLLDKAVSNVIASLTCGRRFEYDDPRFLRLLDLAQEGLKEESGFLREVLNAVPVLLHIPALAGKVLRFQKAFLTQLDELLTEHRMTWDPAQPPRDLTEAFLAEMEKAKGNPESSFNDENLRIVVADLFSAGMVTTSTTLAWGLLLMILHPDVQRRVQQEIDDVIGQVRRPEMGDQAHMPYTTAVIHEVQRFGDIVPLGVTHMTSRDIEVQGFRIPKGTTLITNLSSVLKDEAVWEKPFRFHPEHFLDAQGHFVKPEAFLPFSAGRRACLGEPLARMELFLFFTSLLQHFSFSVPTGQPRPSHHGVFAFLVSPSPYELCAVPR
# Sequence of Cytochrome P450 3A4 (P08684 whole entry): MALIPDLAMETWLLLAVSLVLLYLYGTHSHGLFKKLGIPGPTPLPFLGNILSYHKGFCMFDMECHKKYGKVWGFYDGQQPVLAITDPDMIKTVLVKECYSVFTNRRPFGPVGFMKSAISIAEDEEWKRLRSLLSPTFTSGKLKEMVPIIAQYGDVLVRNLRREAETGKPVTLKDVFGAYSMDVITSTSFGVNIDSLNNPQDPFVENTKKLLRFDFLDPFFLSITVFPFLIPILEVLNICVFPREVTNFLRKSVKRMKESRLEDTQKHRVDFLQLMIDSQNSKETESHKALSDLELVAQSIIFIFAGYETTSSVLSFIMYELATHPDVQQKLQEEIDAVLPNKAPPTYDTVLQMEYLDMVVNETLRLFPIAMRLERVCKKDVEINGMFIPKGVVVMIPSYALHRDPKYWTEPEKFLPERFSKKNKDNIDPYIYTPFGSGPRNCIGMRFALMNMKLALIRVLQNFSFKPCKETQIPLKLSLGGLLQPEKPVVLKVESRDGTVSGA
compound,measurement,setting,value
Cc1nc(C(=O)N2CCCC(Nc3ccc(C)c(C)c3)C2)cs1 (stereo unspecified),AC50,[1],0.479 µM (active)
CC(C)(C)NC(=O)C(c1ccncc1)N(Cc1ccco1)C(=O)c1ccc(-c2ccccc2)[nH]1 (stereo unspecified),EC50,[2],8.7 µM (active)
same,EC50,H4,15.2 µM (active)
same,EC50,[3],> 30 µM (not active)
O=C(/C=C/c1ccccc1Cl)c1ccc[nH]1,EC50,[2],44.6 µM (active)
same,EC50,H4,38.9 µM (active)
same,EC50,[3],24.3 µM (active)
Cc1ccc(NC(S)=NCCN2CCOCC2)cc1C,AC50,Cytochrome P450 3A4,15.8 µM (inconclusive)
same,AC50,Cytochrome P450 2C9,inconclusive
COc1ccccc1NC(=O)c1nn(-c2cccc(C(F)(F)F)c2)ccc1=O,AC50,Cytochrome P450 2C9,inconclusive
O=C(Nc1cc(N2CCCCC2)ncn1)c1ccc(F)cc1,EC50,[2],> 120 µM (not active)
same,EC50,H4,14.1 µM (active)
same,EC50,[3],17.3 µM (active)
CCc1ccc(CN2CCN(C(=O)c3cccc(OC)c3OC)CC2)cc1,AC50,[4],1.66 µM (active)
same,AC50,[5],67.5 µM (active)
same,AC50,[6],11.8 µM (active)
same,AC50,[7],2.01 µM (active)
same,AC50,[8],26.2 µM (active)
Cc1nc(Cl)sc1C(=O)Nc1cc(F)cc(F)c1,CC50,Vero,> 25 µM (active)
COc1ccccc1-c1cc(C(=O)Nc2cc(C)n(Cc3ccc(Cl)cc3)n2)no1,AC50,Cytochrome P450 1A2,0.794 µM (inconclusive)
same,AC50,Cytochrome P450 2D6,0.891 µM (inconclusive)
same,AC50,Cytochrome P450 2C9,inconclusive
CC(C)Cn1c(SCC(=O)c2c(N)n(C)c(=O)n(C)c2=O)nc2ccccc21,AC50,Cytochrome P450 1A2,25.1 µM (inconclusive)
same,AC50,Cytochrome P450 2C9,inconclusive
CC(=O)Nc1ccc2c(c1)nc1n2CCSC1,AC50,[1],0.34 µM (active)
Cc1ccc(S(=O)(=O)c2c(N)n(CCC(C)C)c3nc4ccccc4nc23)cc1,AC50,[4],9.53 µM (active)
same,AC50,[5],22.7 µM (active)
same,AC50,[6],35.4 µM (active)
same,AC50,[7],24.9 µM (active)
same,AC50,[8],18.6 µM (active)
same,AC50,[9],> 380 µM (inactive)
same,EC50,Protein RecA,3.98 µM (active)
same,EC50,[10],> 260 µM (inactive)
CSc1nc(O)c(Nc2cccc(Cl)c2)c(O)n1,AC50,[1],1.14 µM (active)
same,AC50,[9],64.9 µM (active)
same,EC50,Protein RecA,1.92 µM (active)
N#CC1=C2Sc3ccccc3N2CCCC1=O,EC50,[2],0.318 µM (active)
same,EC50,H4,19.7 µM (active)
same,EC50,[3],59 µM (active)
COc1ccccc1N1CCN(S(=O)(=O)c2cccc(F)c2)CC1,AC50,[1],28.8 µM (active)
Cl.OC1(c2ccc(F)cc2)CCNC1 (stereo unspecified),AC50,Cytochrome P450 2C19,inconclusive
same,AC50,Cytochrome P450 2C9,inconclusive
COc1ccc(C(=O)Cn2c(C(C)=O)nc3ccccc32)cc1,CC50,Vero,11.5 µM (active)
O=C(Cc1ccccc1)N/N=C/C=C/c1cccc([N+](=O)[O-])c1,AC50,Cytochrome P450 2C19,inconclusive
same,AC50,Cytochrome P450 1A2,15.8 µM (inconclusive)
same,AC50,Cytochrome P450 2C9,inconclusive
O=C(O)c1cc(N/N=C/c2cccs2)ccc1Cl,EC50,[2],19 µM (active)
same,EC50,H4,3.38 µM (active)
same,EC50,[3],0.632 µM (active)
Cc1cccc(CNc2ncnc3ccc(-c4ccc5c(c4)OCCO5)cc23)c1,AC50,[4],27.9 µM (active)
same,AC50,[5],5.98 µM (active)
same,AC50,[6],8.48 µM (active)
same,AC50,[7],5.84 µM (active)
same,AC50,[8],> 70 µM (inactive)
same,AC50,INS1,7.74 µM (active)
same,CC50,[11],> 40 µM (active)

# — ChEMBL document CHEMBL1201862, “PubChem BioAssay data set” (2004)
